Measured values reported in ChEMBL document CHEMBL1132896, “Beta-casomorphins: substitution of phenylalanine with beta-homo phenylalanine increases the mu-type opioid receptor affinity” (Bioorg Med Chem Lett, 2000).
Non-standard residues stand in square brackets, D forms with d. Residues, ends and D or L forms follow the SMILES beside them. β3hF = N[C@H](CC(=O)O)Cc1ccccc1

How the values were obtained:
Mu-type opioid receptor [1] = target: T1, Mu-type opioid receptor (Rattus norvegicus, UniProt P33535); experiment: Inhibitory concentration against [3H]DAMGO binding to Opioid receptor mu 1 in rat brain membrane; type: cell membranes
Mu-type opioid receptor [2] = target: T1, Mu-type opioid receptor; experiment: Compound was evaluated for the binding affinity of Opioid receptor mu 1 by displacing the radioligand [3H]DAMGO from rat brain membrane

T1 sequence (P33535 whole entry): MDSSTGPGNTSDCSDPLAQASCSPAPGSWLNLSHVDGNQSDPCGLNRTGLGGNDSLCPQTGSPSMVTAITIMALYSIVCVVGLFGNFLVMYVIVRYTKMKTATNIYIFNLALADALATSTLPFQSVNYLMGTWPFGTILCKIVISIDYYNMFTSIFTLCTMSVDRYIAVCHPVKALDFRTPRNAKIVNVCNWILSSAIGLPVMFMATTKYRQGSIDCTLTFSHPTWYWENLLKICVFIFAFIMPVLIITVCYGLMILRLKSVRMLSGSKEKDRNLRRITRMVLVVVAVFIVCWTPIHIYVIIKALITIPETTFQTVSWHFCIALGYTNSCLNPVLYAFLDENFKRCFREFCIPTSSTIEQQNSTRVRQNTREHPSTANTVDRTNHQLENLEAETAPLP

N[C@@H](Cc1ccc(O)cc1)C(=O)N1CCC[C@H]1C(=O)N[C@@H](Cc1ccccc1)C(=O)N1CCC[C@H]1C(=O)NCC(=O)O (H-YPFPG-OH) showed an IC50 (Mu-type opioid receptor [1]) of 4.5 µM and a Ki (Mu-type opioid receptor [2]) of 1.62 µM.

For CC[C@H](C)[C@H](NC(=O)[C@@H]1CCCN1C(=O)CNC(=O)[C@@H]1CCCN1C(=O)[C@H](Cc1ccccc1)NC(=O)[C@@H]1CCCN1C(=O)[C@@H](N)Cc1ccc(O)cc1)C(=O)O (H-YPFPGPI-OH), the IC50 (Mu-type opioid receptor [1]) was 20 µM and the Ki (Mu-type opioid receptor [2]) was 7.54 µM.

In the case of N[C@@H](Cc1ccc(O)cc1)C(=O)N1CCC[C@H]1C(=O)N[C@H](CC(=O)N1CCC[C@H]1C(=O)NCC(=O)O)Cc1ccccc1 (H-YP[β3hF]PG-OH), the IC50 (Mu-type opioid receptor [1]) is reported as 2 µM and the Ki (Mu-type opioid receptor [2]) is reported as 0.72 µM.

CC[C@H](C)[C@H](NC(=O)[C@@H]1CCCN1C(=O)CNC(=O)[C@@H]1CCCN1C(=O)C[C@H](Cc1ccccc1)NC(=O)[C@@H]1CCCN1C(=O)[C@@H](N)Cc1ccc(O)cc1)C(=O)O (H-YP[β3hF]PGPI-OH) was tested, and the IC50 (Mu-type opioid receptor [1]) was 4 µM and the Ki (Mu-type opioid receptor [2]) was 1.44 µM.
